This is an account of results in US20020137715A1, “Blocking Sp1 transcription factor broadly inhibits extracellular matrix gene expression in vitro and in vivo: implications for the treatment of tissue fibrosis” (priority 2001, published 2002).

One data set deals with COL1A2 promoter. The experiment in a line: Decoy oligonucleotides on COL1A2/CAT promoter activity in dermal fibroblasts (FIG. 5A). Format: cell-based, human. The settings on record: −3500COL1A2/CAT, 24 h; for decrease of COL1A2 promoter activity: various amounts added to culture medium. How it is done: (§1) FIG. 5. Decoy Sp1 oligonucleotides inhibit COL1A2 promoter activity in vitro and in vivo. A, Confluent human dermal fibroblast cultures are transfected with 5 μg of −500COL1A2/CAT reporter gene construct. After glycerol shock, increasing amounts (2, 5, 10 μg) of Sp1 (open bars) or mSp1 (hatched bars) oligonucleotides are added to the culture medium. Forty hours later, CAT activity is determined and compared to that of cultures without oligonucleotides (closed bar). Relative promoter activity (mean±SD) of three separate experiments performed in duplicate is presented. B, Four transgenic mice carrying 17 kb of mouse COL1A2 promoter linked to the luciferase gene in their genome are injected subcutaneously at distant sites (approx. 2 cm apart) with 15 μg of either Sp1 (open bar) or mSp1 (hatched bar) oligonucleotides in 25 μl of H2O. After a 30-hr incubation, animals are sacrified and luciferase activity is determined in the skin surrounding the injection sites using identical amounts of protein extracts (40 μg). A non-injected skin area is used as control (solid bar).
Transient cell transfection and CAT assays. Transient cell transfections are performed with the calcium phosphate/DNA co-precipitation procedure. CAT activity is measured using [^14C]chloramphenicol as substrate (Gorman et al, Mol Cell Biol 2: 1044-1051, 1982) followed by thin layer chromatography and quantitation with a phosphorimager.
Decoy oligonucleotides. In some in vitro experiments decoy double-stranded oligonucleotides are used in an attempt to interfere with Sp1 binding to its cognate cis-elements within the COL1A2 promoter. […] 24 h later, CAT activity, representing promoter activity, is determined.
Decoy Sp1 oligonucleotides inhibit COL1A2 promoter activity in vitro and in vivo. Since Sp1 is fundamental for high expression of several ECM genes, short oligonucleotides bearing a consensus Sp1 binding sequence are analyzed for their efficacy as decoys to decrease collagen promoter activity. […] Promoter activity is determined 24 h later. […]

The subject of a further data set is COL7A1 promoter. The experiment in a line: Decoy oligonucleotides on COL7A1 promoter activity. It counts as cell-based, human. The settings on record: compared with COL1A2 promoter.
The subject of a further data set is mouse COL1A2 promoter. The experiment in a line: Decoy oligonucleotides in COL1A2/luciferase transgenic mice (FIG. 5B). It counts as in vivo. To be noted: 15 μg intradermally; COL1A2/lux transgenic mice; 24 hours; vs control skin. How it is done:
as §1, with “B, Four transgenic mice carrying 17 kb of mouse COL1A2 promoter linked to the luciferase gene in their genome are injected subcutaneously at distant sites (approx. 2 cm apart) with 15 μg of either Sp1 (open bar) or mSp1 (hatched bar) oligonucleotides in 25 μl of H2O.” left out, “A non-injected skin area is used as control (solid bar).” left out
Treatment of transgenic mice. […] Luciferase activity using identical amounts of extracted proteins is determined with a commercial assay kit (Promega).
Next, decoy Sp1 experiments are performed in a transgenic mouse model in which 17 kb of the mouse COL1A2 promoter drives the expression of the luciferase gene. […] Luciferase activity is determined 24 hours later in the skin region surrounding the injections. […]

In a further data set the test system is human dermal fibroblasts. Format: cell-based.
The next data set addresses Sp1 (Homo sapiens, UniProt P08047). The experiment in a line: EMSA binding of Sp1 to oligonucleotide. The settings on record: EMSA experiments. How it is done: Electrophoresis mobility shift assays (EMSA). A 22-mer consensus Sp1 oligonucleotide 5′-[…]-3′ was used as a probe to determine Sp1/DNA interactions. For supershift experiments, nuclear extracts (5 μg) are incubated for 2 h on ice with an anti-Sp1 antibody (Santa Cruz Biotechnologies, Santa Cruz, Calif.) prior to the binding reactions. Binding mixtures are separated electrophoretically on native 4% acrylamide gels, as described previously (Vindevoghel et al, 1997).
Decoy Sp1 oligonucleotides inhibit COL1A2 promoter activity in vitro and in vivo. Since Sp1 is fundamental for high expression of several ECM genes, short oligonucleotides bearing a consensus Sp1 binding sequence are analyzed for their efficacy as decoys to decrease collagen promoter activity. For this purpose. two approaches are used. First, human dermal fibroblasts are transfected with the −3500COL1A2/CAT construct, and various amounts of either wild-type or mutant Sp1 double-stranded oligonucleotides (SEQ. ID. NO:2 and SEQ. ID. NO: 3. respectively) are added to the culture medium. Promoter activity is determined 24 h later. […] Maximal inhibition (55%) is observed with addition of […] of Sp1 oligonucleotide.
(In general: A gel shift assay detects complexes by their altered migration in electrophoresis.)

Sp1, sequence (P08047 whole entry): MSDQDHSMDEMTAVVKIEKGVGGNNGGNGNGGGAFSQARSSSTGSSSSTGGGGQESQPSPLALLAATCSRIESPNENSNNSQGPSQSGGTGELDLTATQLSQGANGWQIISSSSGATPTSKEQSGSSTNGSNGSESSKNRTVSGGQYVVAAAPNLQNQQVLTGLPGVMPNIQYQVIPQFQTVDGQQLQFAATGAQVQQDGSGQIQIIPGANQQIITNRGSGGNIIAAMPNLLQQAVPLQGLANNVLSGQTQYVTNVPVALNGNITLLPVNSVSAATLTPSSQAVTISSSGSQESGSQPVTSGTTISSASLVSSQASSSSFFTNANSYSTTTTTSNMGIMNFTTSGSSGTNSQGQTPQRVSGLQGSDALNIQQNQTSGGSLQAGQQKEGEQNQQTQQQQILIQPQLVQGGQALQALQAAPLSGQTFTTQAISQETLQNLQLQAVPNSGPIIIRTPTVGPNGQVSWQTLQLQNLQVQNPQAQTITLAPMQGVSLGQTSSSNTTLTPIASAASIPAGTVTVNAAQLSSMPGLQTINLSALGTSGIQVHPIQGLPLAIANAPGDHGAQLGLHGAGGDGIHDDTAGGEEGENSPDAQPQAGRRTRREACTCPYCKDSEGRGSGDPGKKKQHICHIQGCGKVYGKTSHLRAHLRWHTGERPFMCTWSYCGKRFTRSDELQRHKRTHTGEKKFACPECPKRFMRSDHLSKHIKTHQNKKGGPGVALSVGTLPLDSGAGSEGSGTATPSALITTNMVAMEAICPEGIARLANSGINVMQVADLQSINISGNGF

For the substance “Sp1 oligonucleotide: 22-mer consensus Sp1 double-stranded decoy oligonucleotide, 5′-ATTCGATCGGGGCGGGGCGAGC-3′ (double-stranded, further chemistry not given here)”, in the data set with COL1A2 promoter (15 μg/plate), the “Maximal inhibition of COL1A2 promoter activity” value worked out at 55%. In addition, the “decrease of COL1A2 promoter activity” value with COL1A2 promoter is “efficiently decreases COL1A2 promoter activity in a dose-dependent manner”. Moreover, the “inhibition of COL7A1 promoter” value in the data set on COL7A1 promoter is on record as “equally inhibited”. The “reduction of COL1A2 promoter activity (luciferase activity in skin)” value in the data set with mouse COL1A2 promoter is “about 70%”. In addition, the cellular toxicity result in the data set on human dermal fibroblasts was “No cellular toxicity”.

As to “mSp1: mutant double-stranded oligonucleotide used as a control, 5′-ATTCGATCGTAGCGATGCGAGC-3′ (double-stranded, further chemistry not given here) [reference compound]”, the “decrease of COL1A2 promoter activity” value in the data set with COL1A2 promoter is given as “not”. For the same substance, the “reduction of COL1A2 promoter activity (luciferase activity in skin)” value with mouse COL1A2 promoter is given as “no effect”. The cellular toxicity entry with human dermal fibroblasts is “No cellular toxicity”. For the same substance, the “binding of Sp1 to the oligonucleotide's Sp1 binding site” value in the data set with Sp1 is “incapable of binding Sp1”.
